The supplement of paper PMC10307832

What was measured:
Assay in all cases: relative viability (nuclei count vs DMSO), 5 days (fraction); higher = more cells survive
NCI-H1437 = tested on: NCI-H1437
Procedure, shortened: (§1)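 Cells from lung cancer lines were seeded into 1536-well plates and, one day later, dosed by pin tool. Treatments were either a single drug or a fixed dose of an anchor drug with five library-drug doses (not always all listed) in √10 steps. After 5 days, nuclei were stained in a one-step fixation (final 0.05% Triton X-100, 1% formaldehyde, 1 ug/ml Hoechst) and counted on 4× images, and relative viability is the treated-to-vehicle nuclei ratio, as the median of duplicate plates.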

A-427 = tested on: A-427
Procedure, shortened: as §1

SW 900 = tested on: SW 900
Procedure, shortened: as §1

NCI-H838 = tested on: NCI-H838
Procedure, shortened: as §1

NCI-H1975 = tested on: NCI-H1975
Procedure, shortened: as §1

NCI-H1666 = tested on: NCI-H1666
Procedure, shortened: as §1

NCI-H520 = tested on: NCI-H520
Procedure, shortened: as §1

HCC-15 = tested on: HCC-15
Procedure, shortened: as §1

SK-MES-1 = tested on: SK-MES-1
Procedure, shortened: as §1

COR-L 105 = tested on: COR-L 105
Procedure, shortened: as §1

NCI-H596 = tested on: NCI-H596
Procedure, shortened: as §1

HCC-827 = tested on: HCC-827
Procedure, shortened: as §1

COR-L23 = tested on: COR-L23
Procedure, shortened: as §1

EKVX = tested on: EKVX
Procedure, shortened: as §1

LCLC-103H = tested on: LCLC-103H
Procedure, shortened: as §1

NCI-H522 = tested on: NCI-H522
Procedure, shortened: as §1

HARA = tested on: HARA
Procedure, shortened: as §1

NCI-H441 = tested on: NCI-H441
Procedure, shortened: as §1

NCI-H23 = tested on: NCI-H23
Procedure, shortened: as §1

NCI-H1792 = tested on: NCI-H1792
Procedure, shortened: as §1

201T = tested on: 201T
Procedure, shortened: as §1

LK-2 = tested on: LK-2
Procedure, shortened: as §1

NCI-H650 = tested on: NCI-H650
Procedure, shortened: as §1

HCC-44 = tested on: HCC-44
Procedure, shortened: as §1

SMILES: C[C@@H]1CN(CC(=O)Nc2ccc3c(c2)Cc2cccc(-c4cc(=O)cc(N5CCOCC5)o4)c2S3)C[C@H](C)O1 + Cc1nc(Nc2ncc(C(=O)Nc3c(C)cccc3Cl)s2)cc(N2CCN(CCO)CC2)n1 [Dasatinib] (partner 0.075 µM)
- relative viability (NCI-H1437; first compound 0.04 µM): 0.334
- relative viability (NCI-H1437; first compound 0.1265 µM): 0.34
- relative viability (NCI-H1437; first compound 0.4 µM): 0.387
- relative viability (NCI-H1437; first compound 4 µM): 0.359
- relative viability (A-427; first compound 0.04 µM): 0.737
- relative viability (A-427; first compound 0.1265 µM): 0.719
- relative viability (A-427; first compound 0.4 µM): 0.729
- relative viability (A-427; first compound 4 µM): 0.669
- relative viability (SW 900; first compound 0.04 µM): 0.509
- relative viability (SW 900; first compound 0.1265 µM): 0.801
- relative viability (SW 900; first compound 0.4 µM): 0.66
- relative viability (SW 900; first compound 4 µM): 0.375
- relative viability (NCI-H838; first compound 0.04 µM): 0.27
- relative viability (NCI-H838; first compound 0.1265 µM): 0.233
- relative viability (NCI-H838; first compound 0.4 µM): 0.221
- relative viability (NCI-H838; first compound 4 µM): 0.188
- relative viability (NCI-H1975; first compound 0.04 µM): 0.378
- relative viability (NCI-H1975; first compound 0.1265 µM): 0.39
- relative viability (NCI-H1975; first compound 0.4 µM): 0.368
- relative viability (NCI-H1975; first compound 4 µM): 0.249
- relative viability (NCI-H1666; first compound 0.04 µM): 0.831
- relative viability (NCI-H1666; first compound 0.1265 µM): 0.805
- relative viability (NCI-H1666; first compound 0.4 µM): 0.905
- relative viability (NCI-H1666; first compound 4 µM): 0.788
- relative viability (NCI-H520; first compound 0.04 µM): 0.216
- relative viability (NCI-H520; first compound 0.1265 µM): 0.227
- relative viability (NCI-H520; first compound 0.4 µM): 0.248
- relative viability (NCI-H520; first compound 4 µM): 0.136
- relative viability (HCC-15; first compound 0.04 µM): 0.659
- relative viability (HCC-15; first compound 0.1265 µM): 0.6
- relative viability (HCC-15; first compound 0.4 µM): 0.531
- relative viability (HCC-15; first compound 4 µM): 0.455
- relative viability (SK-MES-1; first compound 0.04 µM): 0.444
- relative viability (SK-MES-1; first compound 0.1265 µM): 0.353
- relative viability (SK-MES-1; first compound 0.4 µM): 0.398
- relative viability (SK-MES-1; first compound 4 µM): 0.263
- relative viability (COR-L 105; first compound 0.04 µM): 0.348
- relative viability (COR-L 105; first compound 0.1265 µM): 0.413
- relative viability (COR-L 105; first compound 0.4 µM): 0.383
- relative viability (COR-L 105; first compound 4 µM): 0.336
- relative viability (NCI-H596; first compound 0.04 µM): 0.568
- relative viability (NCI-H596; first compound 0.1265 µM): 0.512
- relative viability (NCI-H596; first compound 0.4 µM): 0.572
- relative viability (NCI-H596; first compound 4 µM): 0.484
- relative viability (HCC-827; first compound 0.04 µM): 0.396
- relative viability (HCC-827; first compound 0.1265 µM): 0.324
- relative viability (HCC-827; first compound 0.4 µM): 0.344
- relative viability (HCC-827; first compound 4 µM): 0.311
- relative viability (COR-L23; first compound 0.04 µM): 0.588
- relative viability (COR-L23; first compound 0.1265 µM): 0.46
- relative viability (COR-L23; first compound 0.4 µM): 0.593
- relative viability (COR-L23; first compound 4 µM): 0.369
- relative viability (EKVX; first compound 0.04 µM): 0.576
- relative viability (EKVX; first compound 0.1265 µM): 0.568
- relative viability (EKVX; first compound 0.4 µM): 0.603
- relative viability (EKVX; first compound 4 µM): 0.475
- relative viability (LCLC-103H; first compound 0.04 µM): 0.451
- relative viability (LCLC-103H; first compound 0.1265 µM): 0.436
- relative viability (LCLC-103H; first compound 0.4 µM): 0.405
- relative viability (LCLC-103H; first compound 4 µM): 0.419
- relative viability (NCI-H522; first compound 0.04 µM): 0.775
- relative viability (NCI-H522; first compound 0.1265 µM): 0.773
- relative viability (NCI-H522; first compound 0.4 µM): 0.806
- relative viability (NCI-H522; first compound 4 µM): 0.828
- relative viability (HARA; first compound 0.1265 µM): 0.204
- relative viability (HARA; first compound 0.4 µM): 0.34
- relative viability (HARA; first compound 4 µM): 0.258
- relative viability (NCI-H441; first compound 0.04 µM): 0.762
- relative viability (NCI-H441; first compound 0.1265 µM): 0.46
- relative viability (NCI-H441; first compound 0.4 µM): 0.62
- relative viability (NCI-H441; first compound 4 µM): 0.538
- relative viability (NCI-H23; first compound 0.04 µM): 0.751
- relative viability (NCI-H23; first compound 0.1265 µM): 0.751
- relative viability (NCI-H23; first compound 0.4 µM): 0.711
- relative viability (NCI-H23; first compound 4 µM): 0.735
- relative viability (NCI-H1792; first compound 0.04 µM): 0.74
- relative viability (NCI-H1792; first compound 0.1265 µM): 0.684
- relative viability (NCI-H1792; first compound 0.4 µM): 0.788
- relative viability (NCI-H1792; first compound 4 µM): 0.72
- relative viability (201T; first compound 0.04 µM): 0.624
- relative viability (201T; first compound 0.1265 µM): 0.525
- relative viability (201T; first compound 0.4 µM): 0.581
- relative viability (201T; first compound 4 µM): 0.52
- relative viability (LK-2; first compound 0.1265 µM): 0.301
- relative viability (LK-2; first compound 0.4 µM): 0.336
- relative viability (LK-2; first compound 4 µM): 0.437
- relative viability (NCI-H650; first compound 0.04 µM): 0.45
- relative viability (NCI-H650; first compound 0.1265 µM): 0.445
- relative viability (NCI-H650; first compound 0.4 µM): 0.359
- relative viability (NCI-H650; first compound 4 µM): 0.384

SMILES: CC(C)Oc1cc(Nc2nc(N[C@@H](C)c3ccc(F)cn3)ncc2Cl)n[nH]1 [AZ23] + NC(=O)Nc1cc(-c2cccc(F)c2)sc1C(=O)N[C@H]1CCCNC1 [AZD7762] (partner 0.2 µM)
- relative viability (NCI-H1437; first compound 0.01 µM): 1.17
- relative viability (NCI-H1437; first compound 0.03162 µM): 1.18
- relative viability (NCI-H1437; first compound 0.3162 µM): 1.19
- relative viability (A-427; first compound 0.01 µM): 0.462
- relative viability (A-427; first compound 0.03162 µM): 0.724
- relative viability (A-427; first compound 0.3162 µM): 1.01
- relative viability (SW 900; first compound 0.01 µM): 0.556
- relative viability (SW 900; first compound 0.3162 µM): 0.74
- relative viability (NCI-H838; first compound 0.01 µM): 0.934
- relative viability (NCI-H838; first compound 0.03162 µM): 1.05
- relative viability (NCI-H838; first compound 0.3162 µM): 0.991
- relative viability (NCI-H1975; first compound 0.01 µM): 0.555
- relative viability (NCI-H1975; first compound 0.03162 µM): 0.799
- relative viability (NCI-H1975; first compound 0.3162 µM): 0.828
- relative viability (NCI-H1666; first compound 0.01 µM): 0.91
- relative viability (NCI-H1666; first compound 0.03162 µM): 0.772
- relative viability (NCI-H1666; first compound 0.3162 µM): 0.977
- relative viability (HCC-15; first compound 0.01 µM): 1.43
- relative viability (HCC-15; first compound 0.03162 µM): 1.34
- relative viability (HCC-15; first compound 0.3162 µM): 1.35
- relative viability (NCI-H596; first compound 0.01 µM): 1.02
- relative viability (NCI-H596; first compound 0.03162 µM): 1.04
- relative viability (NCI-H596; first compound 0.3162 µM): 1.03
- relative viability (HCC-44; first compound 0.01 µM): 1.06
- relative viability (HCC-44; first compound 0.03162 µM): 1.01
- relative viability (HCC-44; first compound 0.3162 µM): 1.04
- relative viability (HCC-827; first compound 0.01 µM): 0.147
- relative viability (HCC-827; first compound 0.03162 µM): 0.223
- relative viability (HCC-827; first compound 0.3162 µM): 0.212
- relative viability (EKVX; first compound 0.01 µM): 0.625
- relative viability (EKVX; first compound 0.03162 µM): 0.837
- relative viability (EKVX; first compound 0.3162 µM): 0.676
- relative viability (LCLC-103H; first compound 0.01 µM): 0.875
- relative viability (LCLC-103H; first compound 0.03162 µM): 0.87
- relative viability (LCLC-103H; first compound 0.3162 µM): 0.881
- relative viability (NCI-H522; first compound 0.01 µM): 0.935
- relative viability (NCI-H522; first compound 0.03162 µM): 0.95
- relative viability (NCI-H522; first compound 0.3162 µM): 0.809
- relative viability (HARA; first compound 0.01 µM): 0.252
- relative viability (HARA; first compound 0.03162 µM): 0.485
- relative viability (HARA; first compound 0.3162 µM): 0.534
- relative viability (NCI-H441; first compound 0.01 µM): 1.17
- relative viability (NCI-H441; first compound 0.03162 µM): 1.03
- relative viability (NCI-H441; first compound 0.3162 µM): 1.33
- relative viability (NCI-H23; first compound 0.03162 µM): 0.204
- relative viability (NCI-H23; first compound 0.3162 µM): 0.309
- relative viability (NCI-H1792; first compound 0.01 µM): 0.595
- relative viability (NCI-H1792; first compound 0.03162 µM): 0.515
- relative viability (NCI-H1792; first compound 0.3162 µM): 0.904
- relative viability (201T; first compound 0.01 µM): 0.321
- relative viability (201T; first compound 0.03162 µM): 0.576
- relative viability (201T; first compound 0.3162 µM): 0.743
- relative viability (LK-2; first compound 0.03162 µM): 0.472
- relative viability (LK-2; first compound 0.3162 µM): 0.411
- relative viability (NCI-H650; first compound 0.01 µM): 0.954
- relative viability (NCI-H650; first compound 0.03162 µM): 1.14
- relative viability (NCI-H650; first compound 0.3162 µM): 1.12
